Marks after values point to notes of the source that are not given here.
Legend:
Format in all cases: cell-based, Chinese hamster
[1] = system: rCHO-1 cells; experiment: Suspension culture of rCHO-1 cells: density of live cells, growth and longevity (hemocytometer, trypan blue dye exclusion)
Description: (§1) Two recombinant CHO DG44 cell lines (hereinafter referred to as “rCHo-1” and “rCHO-2”) were used for monoclonal antibody (mAB) production. Each cell line was passaged 8 times or more and suspension adapted in a protein-free medium (HY-PFM, in-house) or chemically defined medium (HY-CDM, in-house). The suspension-adapted cell line was used to evaluate how the concentrations of trace elements, the selection of an effective trace element, and the concentration of ZnSO4.7H2O (Zn) affected the growth of cells and the production of antibody in commercial chemically defined media.
(§2) The cell line was inoculated at a density of 4×10^5 cells/ml and cultured in an Erlenmeyer flask with a 30 ml/125 ml working volume on an orbital shaker at 120 rpm under humidified conditions at 37° C. and 5% CO2. Before inoculation, the cells were centrifuged at 1,000 rpm (×162 g) for 5 min, the supernatant was discarded, and the remaining cells were dispersed into single cells in the heated medium. The cells were passaged three times to minimize the influence of the remaining medium under the experimental conditions. The subcultured cells were evaluated.
The density of live cells was analyzed using a hemocytometer (Neubauer improved bright-line, Marienfeld, Germany), an inverted microscope (CK30, Olympus, Japan), and trypan blue dye exclusion.

[2] = system: rCHO-2 cells; experiment: Suspension culture of rCHO-2 cells: antibody level by sandwich ELISA; conditions: HY-CDM, Zn around 60-75 μM
Description: as §1
The cell line was inoculated at a density of 4×10^5 cells/ml and cultured in an Erlenmeyer flask with a 30 ml/125 ml working volume on an orbital shaker at 120 rpm under humidified conditions at 37° C. and 5% CO2. […] The subcultured cells were evaluated.
4, 6, 8, 10, and 12 days after cells were inoculated under the experimental conditions, cell culture fluids were sampled, centrifuged at 1,000 rpm (×162 g) for 5 min, and stored at −20° C. before antibody analysis. Antibody levels were measured by sandwich enzyme linked immunosorbent assay (ELISA). […] For antibody level analysis, absorbance values were measured at a wavelength of 450 nm using a kinetic microplate reader (Molecular Devices, Sunnyvale, Calif., USA).

[3] = system: rCHO-1 cells; experiment: Suspension culture of rCHO-1 cells: antibody level by sandwich ELISA
Description: as §1, §2
4, 6, 8, 10, and 12 days after cells were inoculated under the experimental conditions, cell culture fluids were sampled, centrifuged at 1,000 rpm (×162 g) for 5 min, and stored at −20° C. before antibody analysis. Antibody levels were measured by sandwich enzyme linked immunosorbent assay (ELISA). For the detection of mAB by ELISA, anti-human IgG (Fab specific) (I5260, Sigma, St. Louis, Mo., USA) was used as a primary antibody and human IgG (Fc specific)-horseradish peroxidase (A0170, Sigma) was used as a chromogenic antibody. 1% (w/v) bovine serum albumin/phosphate buffered saline was used for blocking, 3,3′,5,5′-tetramethylbenzidine (TMB) solution (KPL, Gaithersburg, Md., USA) was used as a chromogenic reagent. The chromogenic reaction was stopped with 2 M H2SO4. For antibody level analysis, absorbance values were measured at a wavelength of 450 nm using a kinetic microplate reader (Molecular Devices, Sunnyvale, Calif., USA).

[4] = HY-PFM, trace element individually added in 20-fold amount of control
[5] = commercial CDM-1, 2 and 3, Zn ions enhanced to 60 μM
[6] = HY-CDM, Zn around 60-75 μM, rCHO-1

O.O.O.O.O.O.O.O=S(=O)([O-])[O-].[Zn+2] [Zn, ZnSO4.7H2O] was tested, and the “cell longevity (cell viability of 80%), times higher than control group” value ([1]; HY-CDM, Zn 60 μM) was 1.8 times, the live cell densities ([1]; HY-PFM and HY-CDM, Zn 60 μM) was 9×10^6 cells/ml and the “period for which live cell density was maintained during cell culture” value ([1]; HY-PFM and HY-CDM, Zn 60 μM) was “at least 9 days”. For the same molecule, the “cell longevity (cell viability of 80%), times higher than control group” value ([1]; HY-PFM, Zn 60 μM) was 1.4 times, the maximum cell density [1, 4] was 1.1×10^7 cells/ml and the “Cell longevity (day/80% viability)” value ([1]; Zn 3 μM (control level), CDM) was 5.1 ± 0.0 days. The μ ([1]; Zn 3 μM (control level), CDM) was 1.01 ± 0.04 day⁻¹, the “Cell longevity (day/80% viability)” value ([1]; Zn 3 μM (control level), PFM) was 6.2 ± 0.0 days and the μ ([1]; Zn 3 μM (control level), PFM) was 0.87 ± 0.01 day⁻¹. The “Cell longevity (day/80% viability)” value ([1]; Zn 60 μM, CDM) was 9.3 ± 0.4 days, the μ ([1]; Zn 60 μM, CDM) was 1.00 ± 0.00 day⁻¹ and the “Cell longevity (day/80% viability)” value ([1]; Zn 60 μM, PFM) was 8.5 ± 0.2 days. For the same molecule, the μ ([1]; Zn 60 μM, PFM) was 0.90 ± 0.02 day⁻¹, the “inhibitory effect on cell growth” value ([1]; Zn ion concentration enhanced to 30-60 μM, recombinant CHO cell lines) was “no inhibitory effect on cell growth” and the “inhibition of cell growth” value [1, 5] was “No inhibition of cell growth was observed”. The “antibody production compared to control group” value [2] was 1.3 fold, the “antibody production rate (maximum)” value [2] was 210 mg/L and the “qmAB at the initial stage of cell culture (0-4 days)” value ([3]; HY-CDM, Zn 60 μM) was 5.1 pcd. For the same molecule, the “antibody production compared to control group” value [3, 6] was 6.6 fold, the “antibody production rate (maximum)” value [3, 6] was 440 mg/L and the “increase in antibody production compared to control group” value ([3]; HY-PFM and HY-CDM, Zn 60 μM) was at least 2 fold. For the same molecule, the “qmAB at the initial stage (0-4 days), times those in control group” value ([3]; HY-PFM and HY-CDM, Zn 60 μM vs 3 μM) was “at least 1.7 times”, the “qmAB at the initial stage of cell culture (0-4 days)” value ([3]; HY-PFM, Zn 60 μM) was 9.4 pcd and the “antibody production (maximum)” value ([3]; HY-PFM, Zn 45-60 μM) was 360 mg/L. For the same molecule, the “antibody production relative to control group” value ([3]; HY-PFM, Zn 45-60 μM vs control (3 μM)) was “twice”, the maximum antibody level [3, 4] was 260 mg/L and the “qmAB (ped, 0-4 days)” value ([3]; Zn 3 μM (control level), CDM) was 3.07 ± 0.19 ped. The “qmAB (ped, 4-8 days)” value ([3]; Zn 3 μM (control level), CDM, calculated from the results obtained 4-6 days after cell culture) was 1.47 ± 0.10^a ped, the “qmAB (ped, 0-4 days)” value ([3]; Zn 3 μM (control level), PFM) was 4.99 ± 0.13 ped and the “qmAB (ped, 4-8 days)” value ([3]; Zn 3 μM (control level), PFM) was 1.75 ± 0.01 ped. For the same molecule, the “qmAB (ped, 0-4 days)” value ([3]; Zn 60 μM, CDM) was 5.06 ± 0.07 ped, the “qmAB (ped, 4-8 days)” value ([3]; Zn 60 μM, CDM) was 3.30 ± 0.01 ped and the “qmAB (ped, 0-4 days)” value ([3]; Zn 60 μM, PFM) was 9.35 ± 0.11 ped. The “qmAB (ped, 4-8 days)” value ([3]; Zn 60 μM, PFM) was 3.74 ± 0.04 ped, the “effectiveness in producing antibody by batch culture” value ([3]; Zn ion concentration enhanced to 30-90 μM, recombinant CHO cell lines) was “very effective in producing antibody by batch culture” and the “specific production rates of antibody” value ([3]; Zn ions enhanced to 30 μM, protein-free and chemically defined media, recombinant CHO cell lines) was “improved”. For the same molecule, the “qmAB at the late stage (4-8 days), times higher than control group” value ([3]; both media (HY-PFM, HY-CDM), Zn 60 μM vs 3 μM) was 2.1 times, the “antibody productivities, times higher than control group” value [3, 5] was 1.2-1.5 times and the “cell growth and antibody production” value ([3]; commercial CDM-4 (CD OptiCHO), Zn ions enhanced to 60 μM) was “only continuous cell growth and antibody production was observed”.
